Experimental data reported in patent US11628199B2, “Medicine for combined use in cancer treatment” (SICHUAN JIUZHANG BIOLOGICAL SCIENCE AND TECHNOLOGY CO., LTD, priority 2017, dated 2023).
Where a SMILES comes first, the peptide text is derived from it. [ ]: non-standard residue; d: D form. The star is where a group is joined. dPhe(4-NHCONH2) = NC(=O)Nc1ccc(C[C@@H](N)C(=O)O)cc1; Dihydroorotyl(S) = O=C1C[C@@H](C(=O)*)NC(=O)N1; dPhe(4-Cl) = N[C@H](Cc1ccc(Cl)cc1)C(=O)O; Phe(4-NH2) = Nc1ccc(C[C@H](N)C(=O)O)cc1; d2Nal = N[C@H](Cc1ccc2ccccc2c1)C(=O)O; Lys(iPr) = CC(C)NCCCC[C@H](N)C(=O)O; NMeY = CN[C@@H](Cc1ccc(O)cc1)C(=O)O; d3Pal = N[C@H](Cc1cccnc1)C(=O)O

Assays:
[1] = tested on: drug-resistant RM-1 mouse prostate cancer cell lines (abarelix-induced); assay: In vivo mouse xenograft tumor of drug-resistant RM-1 prostate cancer, chlorogenic acid combined with abarelix; details: for Tumor weight: x ± s; for inhibitory rate of mouse xenograft tumor of drug-resistant RM-1 prostate cancer (in words): groups and doses as in Table 3
Experimental: Test drug: chlorogenic acid, abarelix.
Test cell lines: RM-1 mouse prostate cancer cell lines. RM-1 cell lines were induced by increasing concentration gradient of aberlix and established by clone and screen. Prior to experiment, cell lines were cultured without drug.
Test animals: Kunming mice, ♂, weight 17-24 g.
Drug-resistant cell lines after removal of drug were adjusted to the concentration of 1×10^7/mL with culture medium, and inoculated under the right anterior armpit of mice at 0.1 ml/mouse.
After the mean diameter of tumor reached 100 mm^3, mice were divided into 4 groups, i.e. abarelix group, chlorogenic acid+abarelix group, chlorogenic acid group, and the negative control group, respectively.
Abarelix group: intraperitoneal injection, once every seven days, 15 mg/kg, two doses in total.
chlorogenic acid+abarelix group: chlorogenic acid was intraperitoneally injected, once every day, 10 mg/kg, continuous administration for 5 days; After withdrawal of chlorogenic acid, abarelix was intraperitoneally injected on the next day, once every 7 days, 15 mg/kg, two doses in total.
Chlorogenic acid group: intraperitoneal injection, once every day, 10 mg/kg, continuous administration for 5 days; after that, saline was intraperitoneally injected, once every day, continuing 10 days.
Negative control group: intraperitoneal injection of saline, once every day, continuing 15 days.
After completion of administration, the experiment was stopped, and mice were sacrificed by cervical dislocation and weighed. The tumors were removed and weighed to calculate the tumor inhibitory rate.

[2] = tested on: RM-1 mouse prostate cancer cell lines; assay: In vivo mouse xenograft tumor of RM-1 prostate cancer, chlorogenic acid combined with abarelix or degarelix
Experimental: Test drug: chlorogenic acid, abarelix, degarelix.
Test cell lines: RM-1 mouse prostate cancer cell lines.
(§1) Cells in exponential phase of growth were taken out, digested with trypsin to […], and then cell suspension was prepared by addition of saline.
When the tumor volume in the negative group was about 0.5 cm^3, the experiment was stopped. The mice were sacrificed by cervical dislocation and weighed. The tumors were removed and weighed to calculate the tumor inhibitory rate.

[3] = tested on: EMT-6 mouse breast cancer cell lines; assay: In vivo mouse xenograft tumor of EMT-6 breast cancer, chlorogenic acid combined with fulvestrant
Experimental: Test drug: chlorogenic acid, fulvestrant.
Test cell lines: EMT-6 mouse breast cancer cell lines.
as §1
Fulvestrant group received drug once by intraperitoneal injection on the next day after inoculation; chlorogenic acid group received drug once every day by intraperitoneal injection from the next day after inoculation, and the drug was successively administrated 15 times; combined medicine group received intraperitoneal injection of fulvestrant once on the next day after inoculation, and intraperitoneal injection of chlorogenic acid once every day from the next day after inoculation; the negative control group received saline by intraperitoneal injection once every day from the next day after inoculation, and saline was continuously given 15 times. When the tumor volume in the negative group was about 0.5 cm^3, the experiment was stopped. The mice were sacrificed by cervical dislocation and weighed. The tumors were removed and weighed to calculate the tumor suppression rate.
(2) If both drugs are combined, Q=E(a+b)/(Ea+Eb−Ea×Eb), in which E(a+b) is the inhibition rate for the combination of two drugs, i.e. the tested combined effect; Ea and Eb is respectively the inhibition rates of two drugs when they are separately used; the denominator (Ea+Eb−Ea×Eb) is the expected combined effect.

[4] = abarelix 15 mg·kg^−1 i.p. once every seven days, two doses
[5] = degarelix 30 mg·kg^−1 s.c. once
[6] = fulvestrant 40 mg·kg^−1 i.p. once
[7] = chlorogenic acid 10 mg·kg^−1 i.p. once daily, 15 times
[8] = chlorogenic acid 20 mg·kg^−1 i.p. once daily, 15 times
[9] = chlorogenic acid 40 mg·kg^−1 i.p. once daily, 15 times

Q: Which Tumor inhibitory rate [1, 4] does the source give for `CC(=O)N[C@H](Cc1ccc2ccccc2c1)C(=O)N[C@H](Cc1ccc(Cl)cc1)C(=O)N[C@H](Cc1cccnc1)C(=O)N[C@@H](CO)C(=O)N(C)[C@@H](Cc1ccc(O)cc1)C(=O)N[C@H](CC(N)=O)C(=O)N[C@@H](CC(C)C)C(=O)N[C@@H](CCCCNC(C)C)C(=O)N1CCC[C@H]1C(=O)N[C@H](C)C(N)=O` [Abarelix, abarelix] (Ac-[d2Nal][dPhe(4-Cl)][d3Pal]S[NMeY][dN]L[Lys(iPr)]P[dA]-NH2) here?
A: Its Tumor inhibitory rate is 4.84%.

Q: And the Tumor weight [1, 4]?
A: Its Tumor weight is 2.339 ± 0.614 g.

Q: And the “inhibitory rate of mouse xenograft tumor of drug-resistant RM-1 prostate cancer (in words)” value [1]?
A: Its value is “weaker, without obvious suppression effect”.

Q: And the Tumor inhibitory rate ([2]; abarelix 15 mg·kg^−1 i.p. once)?
A: Its Tumor inhibitory rate is 42.73%.

Q: What about the Tumor weight ([2]; abarelix 15 mg·kg^−1 i.p. once) of the same compound?
A: The Tumor weight was 0.886 ± 0.521 g.

Q: `CC(=O)N[C@H](Cc1ccc2ccccc2c1)C(=O)N[C@H](Cc1ccc(Cl)cc1)C(=O)N[C@H](Cc1cccnc1)C(=O)N[C@@H](CO)C(=O)N[C@@H](Cc1ccc(NC(=O)[C@@H]2CC(=O)NC(=O)N2)cc1)C(=O)N[C@H](Cc1ccc(NC(N)=O)cc1)C(=O)N[C@@H](CC(C)C)C(=O)N[C@@H](CCCCNC(C)C)C(=O)N1CCC[C@H]1C(=O)N[C@H](C)C(N)=O` [Degarelix, degarelix] (Ac-[d2Nal][dPhe(4-Cl)][d3Pal]S[Phe(4-NH2)](Dihydroorotyl(S))[dPhe(4-NHCONH2)]L[Lys(iPr)]P[dA]-NH2) was tested. Which Tumor inhibitory rate [2, 5] did it give?
A: Its Tumor inhibitory rate is 50.61%.

Q: And the Tumor weight [2, 5]?
A: The Tumor weight was 0.764 ± 0.218 g.

Q: How did the Tumor inhibitory rate [3, 6] turn out when `C[C@]12CC[C@@H]3c4ccc(O)cc4C[C@@H](CCCCCCCCC[S+]([O-])CCCC(F)(F)C(F)(F)F)[C@H]3[C@@H]1CC[C@@H]2O` (stereo partly drawn) [Fulvestrant, fulvestrant] was run?
A: Its Tumor inhibitory rate is 43.40%.

Q: And the Tumor weight [3, 6]?
A: Its Tumor weight is 0.746 ± 0.311 g.

Q: `O=C(/C=C/c1ccc(O)c(O)c1)O[C@@H]1C[C@](O)(C(=O)O)C[C@@H](O)[C@H]1O` [chlorogenic acid, 3-o-caffeoylquinic acid] was tested. Which Tumor inhibitory rate ([1]; chlorogenic acid 10 mg·kg^−1 i.p. once daily for 5 days) did it give?
A: Its Tumor inhibitory rate is 8.41%.

Q: What about the Tumor weight ([1]; chlorogenic acid 10 mg·kg^−1 i.p. once daily for 5 days, then saline 10 days) of the same compound?
A: The Tumor weight was 2.251 ± 0.581 g.

Q: What about the “inhibitory rate of mouse xenograft tumor of drug-resistant RM-1 prostate cancer (in words)” value [1] of the same compound?
A: Its value is “weaker, without obvious suppression effect”.

Q: What about the Tumor inhibitory rate [2, 7] of the same compound?
A: The Tumor inhibitory rate was 24.05%.

Q: And the Tumor weight ([2]; chlorogenic acid 10 mg·kg^−1 i.p. once daily, 15 times, Kunming mice)?
A: Its Tumor weight is 1.175 ± 0.117 g.

Q: And the Tumor inhibitory rate [2, 8]?
A: Its Tumor inhibitory rate is 27.86%.

Q: And the Tumor weight ([2]; chlorogenic acid 20 mg·kg^−1 i.p. once daily, 15 times, Kunming mice)?
A: Its Tumor weight is 1.116 ± 0.358 g.

Q: And the Tumor inhibitory rate [2, 9]?
A: Its Tumor inhibitory rate is 28.57%.

Q: What about the Tumor weight ([2]; chlorogenic acid 40 mg·kg^−1 i.p. once daily, 15 times, Kunming mice) of the same compound?
A: The Tumor weight was 1.105 ± 0.641 g.

Q: What about the Tumor inhibitory rate [3, 7] of the same compound?
A: Its Tumor inhibitory rate is 31.94%.

Q: What about the Tumor weight ([3]; chlorogenic acid 10 mg·kg^−1 i.p. once daily, 15 times, BALB/C-nu mice) of the same compound?
A: Its Tumor weight is 0.897 ± 0.346 g.

Q: What about the Tumor inhibitory rate [3, 8] of the same compound?
A: Its Tumor inhibitory rate is 36.95%.

Q: What about the Tumor weight ([3]; chlorogenic acid 20 mg·kg^−1 i.p. once daily, 15 times, BALB/C-nu mice) of the same compound?
A: Its Tumor weight is 0.831 ± 0.221 g.

Q: What about the Tumor inhibitory rate [3, 9] of the same compound?
A: Its Tumor inhibitory rate is 42.03%.

Q: And the Tumor weight ([3]; chlorogenic acid 40 mg·kg^−1 i.p. once daily, 15 times, BALB/C-nu mice)?
A: The Tumor weight was 0.764 ± 0.539 g.
